Laboratory results published in patent US11407719B2, “Anti-inflammatory agents” (Resverlogix Corp., priority 2009, dated 2022).

The compounds below were run on hIL-6 mRNA (assay: Quantification of hIL-6 mRNA). Conditions: IL-6 mRNA by real-time PCR; differentiated U937 cells, 1 h pretreatment, lipopolysaccharide stimulation 3 h; concentration ≤10 μM.
Assay type: cell-based, human
Parameters: key: Active: an active compound is one that causes a ≥20% inhibition in IL-6 mRNA at a concentration less than or equal to 10 μM
Experimental: In this example, […] in tissue culture cells was quantitated to measure the transcriptional inhibition of hIL-6 when treated with a compound of the invention.
A human leukemic monocyte lymphoma cell line (U937) was plated (3.2×10^5 cells per well) in a 96-well plate in 100 μL RPMI-1640, and differentiated for 3 days prior to the addition of the compound of interest. The cells were pretreated for 1 h with the test compound prior to stimulation with lipolysaccharide from Escherichia coli. The cells were incubated at 37° C. for 3 h before the cells were harvested. At time of harvest, the spent media was removed from the cells and the cells were rinsed in 200 μL PBS. Cell lysis solution (70 μL) was added the cells in each well and incubated for 5-10 min at room temperature, to allow for complete cell lysis and detachment. mRNA was then prepared using the “mRNA Catcher PLUS plate” (Invitrogen), according to the protocol supplied. After the last wash, as much wash buffer as possible was aspirated without allowing the wells to dry. Elution buffer (E3, 70 μL) was then added to each well. mRNA was then eluted by incubating the mRNA Catcher PLUS plate with Elution Buffer for 5 min at 68° C. and then immediately placing the plate on ice.
The eluted mRNA isolated was then used in a one-step quantitative real-time PCR reaction, using components of the Ultra Sense Kit together with Applied Biosystems primer-probe mixes. Real-time PCR data was analyzed, normalizing the Ct values for hIL-6 to an internal control, prior to determining the fold induction of each unknown sample, relative to the control.

Row | SMILES | Inhibition of IL-6 expression
1 | COc1cc(OC)c2c(=O)[nH]c(-c3ccc(N4CCC(NC(=O)N(C)C)CC4)cc3)nc2c1 [3-(1-(4-(5,7-Dimethoxy-4-oxo-3,4-dihydroquinazolin-2-yl)phenyl)piperidin-4-yl)-1,1-dimethylurea] | Active
2 | COc1cc(OC)c2c(=O)[nH]c(-c3ccc(Nc4ccc(C)cc4)cc3)nc2c1 [5,7-Dimethoxy-2-(4-(p-tolylamino)phenyl)quinazolin-4(3H)-one] | Active
3 | COc1cc(OC)c2c(=O)[nH]c(-c3cc(C)c(OCCN4CCN(C)CC4)c(C)c3)cc2c1 [3-(3,5-dimethyl-4-(2-(4-methylpiperazin-1-yl)ethoxy)phenyl)-6,8-dimethoxyisoquinolin-1(2H)-one] | Active
4 | COc1cc(OC)c2c(=O)[nH]c(-c3ccc(C4CCN(C(=O)OC(C)(C)C)CC4)cc3)nc2c1 [Tert-butyl 4-(4-(5,7-dimethoxy-4-oxo-3,4-dihydroquinazolin-2-yl)phenyl)piperidine-1-carboxylate] | Active
5 | COc1cc(OC)c2c(=O)[nH]c(-c3ccc(OC4CCN(C(=O)N(C)C)CC4)cc3)nc2c1 [4-(4-(5,7-Dimethoxy-4-oxo-3,4-dihydroquinazolin-2-yl)phenoxy)-N,N-dimethylpiperidine-1-carboxamide] | Active
6 | COc1cc(OC)c2c(=O)[nH]c(-c3ccc(CN4CCN(C(C)C)CC4)cc3)nc2c1 [2-(44(4-Isopropylpiperazin-1-yl)methyl)phenyl)-5,7-dimethoxyquinazolin-4(3H)-one] | Active
7 | COc1cc(OC)c2c(=O)[nH]c(-c3ccc(N4CCC(=O)CC4)cc3)nc2n1 [5,7-Dimethoxy-2-(4-(4-oxopiperidin-1-yl)phenyl)pyrido[2,3-d]pyrimidin-4(3H)-one] | Active
8 | COc1cc(OC)c2c(=O)[nH]c(-c3ccc4[nH]c(CO)cc4c3)nc2c1 [2-(2-(Hydroxymethyl)-1H-indol-5-yl)-5,7-dimethoxyquinazolin-4(3H)-one] | Active
9 | Cc1cc(-c2nc3nc(OC(C)C)cc(OC(C)C)c3c(=O)[nH]2)cc(C)c1OCCN1CCCC1 [2-(3,5-Dimethyl-4-(2-(pyrrolidin-1-yl)ethoxy)phenyl)-5,7-diisopropoxypyrido[2,3-d]pyrimidin-4(3H)-one] | Active
10 | COc1cc(OC)c2c(=O)[nH]c(-c3ccc(N4CCC(N(Cc5ccccc5)C(C)=O)CC4)nc3)nc2c1 [N-Benzyl-N-(1-(5-(5,7-dimethoxy-4-oxo-3,4-dihydroquinazolin-2-yl)pyridin-2-yl)piperidin-4-yl)acetamide] | Active
11 | COc1cc(OC)c2c(=O)[nH]c(-c3ccc(N(CCO)CCO)cc3)nc2n1 [2-(4-(bis(2-hydroxyethyl)amino)phenyl)-5,7-dimethoxypyrido[2,3-d]pyrimidin-4(3H)-one] | Active
12 | CC(C)N1CCN(c2ccc(-c3nc4cccc(Cl)c4c(=O)[nH]3)cc2)CC1 [5-Chloro-2-(4-(4-isopropylpiperazin-1-yl)phenyl)quinazolin-4(3H)-one] | Active
13 | COc1cc(OC)c2c(=O)[nH]c(-c3cc(C)c(OCCN4C(=O)c5ccccc5C4=O)c(C)c3)cc2c1 [2-(2-(4-(6,8-Dimethoxy-1-oxo-1,2-dihydroisoquinolin-3-yl)-2,6-dimethylphenoxy)ethyl)isoindoline-1,3-dione] | Active
14 | COc1cc(OC)c2c(=O)[nH]c(-c3ccc(N4CCN(Cc5ccccc5)CC4)cc3)nc2c1 [2-(4-(4-Benzylpiperazin-1-yl)phenyl)-5,7-dimethoxyquinazolin-4(3H)-one] | Active
15 | COc1cc(OC)c2c(=O)[nH]c(-c3ccc(N4CCC(N(C(C)=O)C(C)C)CC4)cc3)nc2c1 [N-(1-(4-(5,7-dimethoxy-4-oxo-3,4-dihydroquinazolin-2-yl)phenyl)piperidin-4-yl)-N-isopropylacetamide] | Active
16 | COc1cc(OC)c2c(=O)[nH]c(-c3ccc4[nH]c(CCO)cc4c3)nc2c1 [2-(2-(2-Hydroxyethyl)-1H-indol-5-yl)-5,7-dimethoxyquinazolin-4(3H)-one] | Active
17 | COc1cc(OC)c2c(=O)[nH]c(-c3ccc(N4CCN(Cc5ccc(F)cc5)CC4)cc3)nc2c1 [2-(4-(4-(4-Fluorobenzyl)piperazin-1-yl)phenyl)-5,7-dimethoxyquinazolin-4(3H)-one] | Active
18 | COc1cc(OC)c2c(=O)[nH]c(-c3ccc(N4CCN(C(=O)c5cccs5)CC4)cc3)nc2c1 [5,7-Dimethoxy-2-(4-(4-(thiophene-2-carbonyl)piperazin-1-yl)phenyl)quinazolin-4(3H)-one] | Active

Row | SMILES | Inhibition of IL-6 expression
19 | COc1cc(OC)c2c(=O)[nH]c(-c3ccc(CN4CCN(C)CC4)cc3)nc2c1 [5,7-dimethoxy-2-(4-((4-methylpiperazin-1-yl)methyl)phenyl)quinazolin-4(3H)-one] | Active
20 | COc1cc(OC)c2c(=O)[nH]c(-c3ccc(Nc4ccncc4)cc3)nc2c1 [5,7-Dimethoxy-2-(4-(pyridin-4-ylamino)phenyl)quinazolin-4(3H)-one] | Active
21 | COc1cc(OC)c2c(=O)[nH]c(-c3ccc(N4CCC(NCc5ccccc5)CC4)nc3)nc2c1 [2-(6-(4-(Benzylamino)piperidin-1-yl)pyridin-3-yl)-5,7-dimethoxyquinazolin-4(3H)-one] | Active
22 | COc1cc(OC)c2c(=O)[nH]c(-c3cc(C)c(OCCCN4CCCC4)c(C)c3)nc2c1 [2-(3,5-Dimethyl-4-(3-(pyrrolidin-1-yl)propoxy)phenyl)-5,7-dimethoxyquinazolin-4(3H)-one] | Active
23 | COc1cc(OC)c2c(=O)[nH]c(-c3cc(C)c(OCCN4CCOCC4)c(C)c3)cc2c1 [3-(3,5-dimethyl-4-(2-morpholinoethoxy)phenyl)-6,8-dimethoxyisoquinolin-1(2H)-one] | Active
24 | COc1cc(OC)c2c(=O)[nH]c(-c3ccc(N4C[C@@H](C)N(C(C)C)[C@@H](C)C4)cc3)nc2c1 [2-(4-((3R,5S)-4-Isopropyl-3,5-dimethylpiperazin-1-yl)phenyl)-5,7-dimethoxyquinazolin-4(3H)-one] | Active
25 | COc1cc(OC)c2c(=O)[nH]c(-c3ccc(N4CCOCC4)cc3)nc2c1 [5,7-dimethoxy-2-(4-morpholinophenyl)quinazolin-4(3H)-one] | Active
26 | COc1cc(OC)c2c(=O)[nH]c(-c3ccc(N4CCNC(C)C4)cc3)nc2c1 (stereo not drawn) [5,7-Dimethoxy-2-(4-(3-methylpiperazin-1-yl)phenyl)quinazolin-4(3H)-one] | Active
27 | COc1cc(OC)c2c(=O)[nH]c(-c3ccc(C4CCNCC4)cc3)nc2c1 [5,7-Dimethoxy-2-(4-(piperidin-4-yl)phenyl)quinazolin-4(3H)-one] | Active
28 | COc1cc(OC)c2c(=O)[nH]c(-c3ccc(OC4CCN(C(C)=O)CC4)cc3)nc2c1 [2-(4-(1-Acetylpiperidin-4-yloxy)phenyl)-5,7-dimethoxyquinazolin-4(3H)-one] | Active
29 | COc1cc(OC)c2c(=O)[nH]c(-c3ccc(NS(C)(=O)=O)cc3)nc2c1 [N-(4-(5,7-Dimethoxy-4-oxo-3,4-dihydroquinazolin-2-yl)phenyl)methanesulfonamide] | Active
30 | COc1cc(OC)c2c(=O)[nH]c(-c3ccc(N4CCC(NS(C)(=O)=O)CC4)cc3)nc2c1 [N-(1-(4-(5,7-Dimethoxy-4-oxo-3,4-dihydroquinazolin-2-yl)phenyl)piperidin-4-yl)methanesulfonamide] | Active
31 | COc1cc(OC)c2c(=O)[nH]c(-c3ccc4[nH]nc(CO)c4c3)nc2c1 [2-(3-(Hydroxymethyl)-1H-indazol-5-yl)-5,7-dimethoxyquinazolin-4(3H)-one] | Active
32 | COc1cc(OC)c2c(=O)[nH]c(-c3ccc(CN4CCC(NC(C)C)CC4)cc3)nc2c1 [2-(4-((4-(Isopropylamino)piperidin-1-yl)methyl)phenyl)-5,7-dimethoxyquinazolin-4(3H)-one] | Active
33 | COc1cc(OC)c2c(=O)[nH]c(-c3ccc(N4CCN(C(=O)c5ccccn5)CC4)cc3)nc2c1 [5,7-Dimethoxy-2-(4-(4-picolinoylpiperazin-1-yl)phenyl)quinazolin-4(3H)-one] | Active
34 | COc1cc(OC)c2c(=O)[nH]c(-c3ccc(N4CCN(C=O)CC4)cc3)nc2c1 [4-(4-(5,7-Dimethoxy-4-oxo-3,4-dihydroquinazolin-2-yl)phenyl)piperazine-1-carbaldehyde] | Active
35 | COc1cc(OC)c2c(=O)[nH]c(-c3ccc(N4CCN(C(=O)c5ccncc5)CC4)cc3)nc2c1 [2-(4-(4-Isonicotinoylpiperazin-1-yl)phenyl)-5,7-dimethoxyquinazolin-4(3H)-one] | Active
36 | COc1cc(OC)c2c(=O)[nH]c(-c3ccc(N4CCN(C(=O)c5cccnc5)CC4)cc3)nc2c1 [5,7-Dimethoxy-2-(4-(4-nicotinoylpiperazin-1-yl)phenyl)quinazolin-4(3H)-one] | Active
